According to article PMC6302903, “Protein and Chemical Determinants of BL-1249 Action and Selectivity for K2P Channels” (ACS Chemical Neuroscience, 2018):

Assays:
[1] = target: T1, K2P4.1(TRAAK) L147F (Mus musculus, UniProt O88454, L147F); assay: TEVC of K2P4.1(TRAAK) mutant L147F; format: cell-based; details: Xenopus oocytes
T1 construct: expressed in transfected cells; host or cells: Xenopus laevis oocytes, mRNA injected
Text: (§1) To identify K2P2.1(TREK-1) M2 residues that might participate in the BL-1249 response, we mapped the residues that differ between K2P2.1(TREK-1) and K2P4.1(TRAAK) in the context of the K2P2.1(TREK-1) structure[6] (Figure 5B,C). Two K2P2.1(TREK-1) M2 residues stood out as candidates that could explain the reduction in BL-1249 response when the entire M2 helix was replaced with M2 from K2P4.1(TRAAK). One is at the M2/M4 interface and occurs between Phe172 and Arg297 via a π–cation interaction that would be lost when Phe172 is replaced with the equivalent K2P4.1(TRAAK) residue Met134 (Figure 5C, right inset). […] To assess the importance of these interactions in the context of BL-1249 response, we made the K2P2.1(TREK-1) mutants F172M and F185L and measured their responses to BL-1249 (Figure 5D). […]
(§2) Xenopus laevis oocytes were harvested in accordance with UCSF IACUC protocol AN129690 and digested in calcium-free ND-96 (96 mM NaCl, 2 mM KCl, 3.8 mM MgCl2) immediately following harvest, as previously described.[6],[10] […] Defolliculated stage V–VI oocytes were injected with 0.2–6.0 ng of mRNA in 50 nL, and currents were recorded 24–48 h after injection. mRNA was synthesized from plasmid DNA using mMessage mMachine Kit (T7 promoter, Ambion, Life Technologies) and purified using RNEasy Kit (Qiagen). […]

[2] = target: T2, K2P2.1(TREK-1) F185L (Mus musculus, UniProt P97438, F200L); assay: TEVC of K2P2.1(TREK-1) mutant F185L; format: cell-based; details: Xenopus oocytes
T2 construct: expressed in transfected cells; host or cells: Xenopus laevis oocytes, mRNA injected
Text: as §1, §2

T1 sequence (O88454 whole entry L147F): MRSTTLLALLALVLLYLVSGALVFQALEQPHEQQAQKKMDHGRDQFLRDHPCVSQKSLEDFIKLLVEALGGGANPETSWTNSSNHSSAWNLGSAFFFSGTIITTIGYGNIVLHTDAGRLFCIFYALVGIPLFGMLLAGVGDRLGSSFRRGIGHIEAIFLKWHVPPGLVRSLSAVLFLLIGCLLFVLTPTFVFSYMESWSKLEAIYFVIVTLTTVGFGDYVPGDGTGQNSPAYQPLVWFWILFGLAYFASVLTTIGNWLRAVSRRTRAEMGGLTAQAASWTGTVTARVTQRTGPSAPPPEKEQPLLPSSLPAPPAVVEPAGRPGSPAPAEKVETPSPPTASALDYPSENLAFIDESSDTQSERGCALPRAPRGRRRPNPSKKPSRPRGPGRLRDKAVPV
T2 sequence (P97438 1-411 isoform P97438-2 F185L): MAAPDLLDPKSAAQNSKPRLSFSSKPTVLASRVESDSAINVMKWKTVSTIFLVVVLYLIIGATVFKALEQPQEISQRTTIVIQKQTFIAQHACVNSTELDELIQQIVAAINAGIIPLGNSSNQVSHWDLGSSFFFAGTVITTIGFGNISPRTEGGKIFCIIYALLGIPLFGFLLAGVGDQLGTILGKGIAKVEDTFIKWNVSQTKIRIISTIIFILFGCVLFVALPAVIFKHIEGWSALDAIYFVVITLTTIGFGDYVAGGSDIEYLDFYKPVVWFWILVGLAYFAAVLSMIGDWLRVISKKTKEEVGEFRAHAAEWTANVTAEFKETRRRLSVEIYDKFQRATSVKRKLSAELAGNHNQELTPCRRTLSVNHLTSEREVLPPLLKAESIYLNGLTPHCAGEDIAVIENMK

EC50 [1]: 27 ± 4 µM
EC50 [2]: 27 ± 5 µM
SMILES: c1ccc(-c2nnn[nH]2)c(Nc2cccc3c2CCCC3)c1 [BL-1249, (5,6,7,8-tetrahydro-naphthalen-1-yl)-[2-(1H-tetrazol-5-yl)-phenyl]-amine]
